From ChEMBL document CHEMBL1201862, “PubChem BioAssay data set” (2004)
Active and inactive are the calls of the source.

What was measured:
[1] = growth suppression of beta-catenin-knockout colon cells, dose response, cell-based, HCT116, human colon tumor (AID 1045); format: functional;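 also: HCT116 colon tumor cells with beta catenin knocked out; cells exposed to compound for 60 hours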
[2] = growth suppression of PTEN-null colon cells, dose response, cell-based, HCT116 PTEN knockout (AID 1047); format: functional;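 also: HCT116 colon tumor cells with PTEN knocked out; cells exposed to compound for 60 hours before readout; potency for loss of cell viability measured by luminescence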
[3] = HeLa cell cytotoxicity, dose response, cytotoxicity control for MgcRacGAP inhibitor project (AID 624300); format: functional
[4] = biological target: T1, Rac GTPase-activating protein 1 (Homo sapiens, UniProt Q9H0H5); assay: MgcRacGAP GTPase-activating activity inhibitors, confirmation, biochemical, ADP Hunter fluorescence, primary and confirmatory (AID 624330); format: functional
T1 sequence (Q9H0H5 whole entry): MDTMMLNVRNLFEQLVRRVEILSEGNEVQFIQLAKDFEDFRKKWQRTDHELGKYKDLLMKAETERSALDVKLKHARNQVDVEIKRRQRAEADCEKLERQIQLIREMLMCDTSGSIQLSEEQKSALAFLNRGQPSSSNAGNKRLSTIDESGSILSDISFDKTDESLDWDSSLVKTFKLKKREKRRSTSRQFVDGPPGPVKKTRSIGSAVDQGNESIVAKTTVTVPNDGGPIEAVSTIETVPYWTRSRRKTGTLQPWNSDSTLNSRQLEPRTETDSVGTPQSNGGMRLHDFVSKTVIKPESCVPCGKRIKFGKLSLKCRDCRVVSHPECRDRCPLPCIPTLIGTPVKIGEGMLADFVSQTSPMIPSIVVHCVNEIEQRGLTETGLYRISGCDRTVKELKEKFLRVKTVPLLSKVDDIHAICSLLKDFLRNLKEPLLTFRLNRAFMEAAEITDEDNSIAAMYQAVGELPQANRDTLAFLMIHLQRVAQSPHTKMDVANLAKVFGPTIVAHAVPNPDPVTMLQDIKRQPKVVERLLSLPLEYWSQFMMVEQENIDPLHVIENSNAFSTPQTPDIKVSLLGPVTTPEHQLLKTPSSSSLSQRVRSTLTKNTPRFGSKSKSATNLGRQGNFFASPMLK

[5] = biological target: DNA dC->dU-editing enzyme APOBEC-3G (Homo sapiens, UniProt Q9HC16); assay: Dose Response confirmation of small molecule APOBEC3G DNA Deaminase Inhibitors via a fluorescence-based single-stranded DNA deaminase assay. [Related pubchem assays (depositor defined):AID493012, AID493028]; format: functional
Chain of DNA dC->dU-editing enzyme APOBEC-3G (Q9HC16 whole entry): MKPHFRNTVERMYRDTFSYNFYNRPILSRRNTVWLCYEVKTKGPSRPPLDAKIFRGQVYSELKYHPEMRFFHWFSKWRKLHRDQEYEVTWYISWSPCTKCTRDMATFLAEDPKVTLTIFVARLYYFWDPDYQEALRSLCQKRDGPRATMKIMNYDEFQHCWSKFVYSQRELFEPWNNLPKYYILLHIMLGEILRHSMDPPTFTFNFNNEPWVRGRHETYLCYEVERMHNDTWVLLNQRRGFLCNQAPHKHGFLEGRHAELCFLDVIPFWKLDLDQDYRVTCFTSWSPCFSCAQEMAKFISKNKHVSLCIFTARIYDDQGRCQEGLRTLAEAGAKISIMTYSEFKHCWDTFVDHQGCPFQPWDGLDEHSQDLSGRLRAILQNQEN

[6] = biological target: T2, Polyadenylate-binding protein 1 (Homo sapiens, UniProt P11940); assay: PABP1 MLLE–PAM2 binding inhibitor potency, dose response, biochemical, fluorescence polarization, FITC-PAM2 peptide (AID 602259); format: functional; settings: read-out: IC50_Mean
T2 sequence (P11940 whole entry): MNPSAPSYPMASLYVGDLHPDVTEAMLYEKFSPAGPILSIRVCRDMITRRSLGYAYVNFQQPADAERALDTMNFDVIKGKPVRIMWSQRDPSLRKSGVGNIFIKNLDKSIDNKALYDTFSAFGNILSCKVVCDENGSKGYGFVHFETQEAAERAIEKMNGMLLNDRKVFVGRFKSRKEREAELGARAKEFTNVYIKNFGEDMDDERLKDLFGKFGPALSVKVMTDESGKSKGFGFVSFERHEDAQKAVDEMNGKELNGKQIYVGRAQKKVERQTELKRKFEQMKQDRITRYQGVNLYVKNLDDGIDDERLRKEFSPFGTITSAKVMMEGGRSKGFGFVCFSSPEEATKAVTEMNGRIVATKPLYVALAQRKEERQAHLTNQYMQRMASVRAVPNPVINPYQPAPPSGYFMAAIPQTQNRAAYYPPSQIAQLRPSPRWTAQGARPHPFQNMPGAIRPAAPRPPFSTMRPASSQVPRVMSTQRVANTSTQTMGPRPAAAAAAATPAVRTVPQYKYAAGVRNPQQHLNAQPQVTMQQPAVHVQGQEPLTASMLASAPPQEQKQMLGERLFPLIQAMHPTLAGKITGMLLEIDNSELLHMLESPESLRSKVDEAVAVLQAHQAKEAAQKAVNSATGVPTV

[7] = biological target: T2, Polyadenylate-binding protein 1; assay: PABP1 MLLE–PAM2 interaction inhibitors, dose response, miRNA deadenylation inhibitor project, biochemical, fluorescence polarization, Cy5-PAM2 peptide, secondary (AID 602260); format: functional; settings: read-out: IC50_Mean
Estrogen receptor beta = Estrogen receptor beta (Homo sapiens, UniProt Q92731);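 also: recombinant ER-beta bound to coactivator SRC1 peptide in presence of estradiol agonist; inhibitors block coactivator peptide binding and lower the FRET signal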
Chain of Estrogen receptor beta (Q92731 whole entry): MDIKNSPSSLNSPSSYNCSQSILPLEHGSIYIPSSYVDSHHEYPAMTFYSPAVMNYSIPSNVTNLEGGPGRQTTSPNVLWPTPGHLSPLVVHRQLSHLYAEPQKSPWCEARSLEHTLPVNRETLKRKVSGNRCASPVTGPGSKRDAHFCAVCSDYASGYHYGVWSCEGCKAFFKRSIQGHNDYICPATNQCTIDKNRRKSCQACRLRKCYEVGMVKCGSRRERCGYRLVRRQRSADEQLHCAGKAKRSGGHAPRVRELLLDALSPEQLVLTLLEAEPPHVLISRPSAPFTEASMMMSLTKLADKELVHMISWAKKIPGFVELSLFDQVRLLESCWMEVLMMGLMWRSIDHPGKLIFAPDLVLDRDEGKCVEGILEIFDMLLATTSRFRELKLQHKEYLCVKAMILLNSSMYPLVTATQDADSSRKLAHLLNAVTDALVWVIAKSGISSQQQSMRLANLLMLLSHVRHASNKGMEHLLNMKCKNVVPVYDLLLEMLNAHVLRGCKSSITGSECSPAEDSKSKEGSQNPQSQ

Cytochrome P450 1A2 = biological target: T3, Cytochrome P450 1A2 (Homo sapiens, UniProt P05177);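 also: PubChem cytochrome P450 panel assay, CYP1A2 panel member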
T3 sequence (P05177 whole entry): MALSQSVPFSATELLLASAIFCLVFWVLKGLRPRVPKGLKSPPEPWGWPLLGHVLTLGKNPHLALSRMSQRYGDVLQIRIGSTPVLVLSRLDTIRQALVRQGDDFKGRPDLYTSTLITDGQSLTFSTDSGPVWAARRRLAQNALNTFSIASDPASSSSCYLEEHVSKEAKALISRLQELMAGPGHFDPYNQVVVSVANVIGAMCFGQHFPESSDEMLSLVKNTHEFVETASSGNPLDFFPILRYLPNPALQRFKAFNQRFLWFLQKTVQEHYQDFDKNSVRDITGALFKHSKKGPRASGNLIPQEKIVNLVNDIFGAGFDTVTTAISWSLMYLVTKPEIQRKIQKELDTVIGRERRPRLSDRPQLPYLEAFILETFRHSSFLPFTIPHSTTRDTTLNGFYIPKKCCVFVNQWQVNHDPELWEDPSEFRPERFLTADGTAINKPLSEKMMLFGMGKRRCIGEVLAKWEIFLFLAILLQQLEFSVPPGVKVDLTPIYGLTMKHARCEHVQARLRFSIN

[8] = biological target: T4, Hepatocyte nuclear factor 4-alpha (Homo sapiens, UniProt P41235); format: functional, cell-based;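 also: biochemical luminescence-based dose-response counterscreen measuring inhibition of HNF4 dimerization, run alongside a screen for blockers of ABHD5–perilipin-5 interaction; split luciferase complementation of HNF4 fusion proteins in cell lysate measuring dimerization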
T4 sequence (P41235 whole entry): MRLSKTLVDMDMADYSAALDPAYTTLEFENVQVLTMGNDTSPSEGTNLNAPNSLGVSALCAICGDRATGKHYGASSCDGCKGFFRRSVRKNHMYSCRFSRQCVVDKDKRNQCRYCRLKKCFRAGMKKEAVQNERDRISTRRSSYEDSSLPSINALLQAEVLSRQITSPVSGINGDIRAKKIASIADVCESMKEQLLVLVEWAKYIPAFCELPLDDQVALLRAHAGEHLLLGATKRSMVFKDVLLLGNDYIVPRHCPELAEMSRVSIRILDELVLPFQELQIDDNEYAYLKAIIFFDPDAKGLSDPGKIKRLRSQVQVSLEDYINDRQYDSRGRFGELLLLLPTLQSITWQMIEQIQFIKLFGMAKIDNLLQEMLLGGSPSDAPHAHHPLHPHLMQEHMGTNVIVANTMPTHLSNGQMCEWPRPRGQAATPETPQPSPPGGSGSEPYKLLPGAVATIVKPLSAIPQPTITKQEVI

[9] = biological target: T5, Heat shock factor protein 1 (Mus musculus, UniProt P38532); assay: HSF1 potentiators in luciferase reporter cells, confirmation, cell-based, NIH3T3, luminescence, dose retest (AID 435004); format: functional;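 also: stress induced by proteasome inhibitor MG132 added 30 min after compound; luciferase reporter driven by HSF1 response element in NIH3T3 cells; actives raise luminescence as potentiators of the MG132 stress response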
T5 sequence (P38532 whole entry): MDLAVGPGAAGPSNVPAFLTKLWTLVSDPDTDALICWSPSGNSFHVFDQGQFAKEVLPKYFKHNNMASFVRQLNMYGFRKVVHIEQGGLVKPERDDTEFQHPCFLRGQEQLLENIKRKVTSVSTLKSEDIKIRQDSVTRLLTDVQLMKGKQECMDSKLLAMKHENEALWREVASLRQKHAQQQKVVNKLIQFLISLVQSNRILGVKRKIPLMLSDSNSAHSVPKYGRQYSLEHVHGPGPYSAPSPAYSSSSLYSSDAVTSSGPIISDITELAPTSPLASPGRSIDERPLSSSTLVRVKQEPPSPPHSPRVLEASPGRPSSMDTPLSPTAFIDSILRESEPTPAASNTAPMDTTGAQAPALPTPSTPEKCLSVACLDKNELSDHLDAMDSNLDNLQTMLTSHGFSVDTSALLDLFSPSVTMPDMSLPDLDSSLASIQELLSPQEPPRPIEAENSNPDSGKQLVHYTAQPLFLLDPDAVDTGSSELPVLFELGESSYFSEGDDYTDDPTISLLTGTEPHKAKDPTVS

INS1 = assay: beta cell apoptosis inhibitors, cytokine rescue, dose response, luminescence, retest (AID 449756); format: functional, cell-based; settings: Rattus norvegicus;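 also: cell death triggered by IL-1 beta plus TNF-alpha plus IFN-gamma mixture; protective hits raise ATP signal compared with cytokine alone wells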
[10] = A Cell Based Secondary Assay To Explore Cytotoxicity of Compounds that Sensitize Mycobacterium Tuberculosis to Beta-Lactam Antibiotics.; format: functional
[11] = inhibitors of SNCA 5'UTR-driven reporter translation, confirmation, H4 neuroglioma cells, luminescence (AID 1988); format: functional, cell-based
[12] = Luminescence Cell-Based Dose Response HTS to Identify Inhibitors of 5'UTR Stem-Loop Driven Prion Protein mRNA Translation in H4 Neuroglioblastoma Cells. [Related pubchem assays: 1827 (Project Summary), 1813 (Primary HTS)]; format: functional
[13] = inhibitors of firefly luciferase expression or activity, dose response, H4 neuroglioma cells, luminescence (AID 1990); format: functional, cell-based
Streptococcus = assay: Group A Streptococcus viability loss, dose response, counter-screen for streptokinase expression inhibitor project, luminescence, BacTiterGlo (AID 1915); format: functional, organism-based;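 also: potency for reduction of bacterial viability or growth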
Streptokinase A = biological target: T6, Streptokinase A (Streptococcus pyogenes serotype M1, UniProt P10520); assay: S. pyogenes streptokinase expression inhibitors, potency, dose response, plasminogen activation absorbance, OD405 (AID 1914); format: functional, Streptococcus pyogenes M1 GAS;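 also: secreted streptokinase activity via plasminogen activation per viability signal from cell pellet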
T6 sequence (P10520 whole entry): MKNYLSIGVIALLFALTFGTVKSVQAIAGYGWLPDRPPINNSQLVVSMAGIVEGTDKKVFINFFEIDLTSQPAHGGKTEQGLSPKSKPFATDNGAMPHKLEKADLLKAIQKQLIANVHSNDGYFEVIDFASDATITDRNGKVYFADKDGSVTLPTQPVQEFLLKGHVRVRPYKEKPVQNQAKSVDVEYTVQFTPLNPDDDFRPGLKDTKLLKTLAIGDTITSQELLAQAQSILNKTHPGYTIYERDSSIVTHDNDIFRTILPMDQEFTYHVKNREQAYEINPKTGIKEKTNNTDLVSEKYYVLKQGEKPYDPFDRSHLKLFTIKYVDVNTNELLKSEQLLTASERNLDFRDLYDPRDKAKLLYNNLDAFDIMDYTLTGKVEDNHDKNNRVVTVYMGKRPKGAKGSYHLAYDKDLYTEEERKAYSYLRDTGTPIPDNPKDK

[14] = test system: Streptococcus sp. 'group A'; assay: growth inhibition of control SK(-) GAS strain, dose response, counter-screen for streptokinase expression inhibitor project, luminescence, kanamycin, BacTiterGlo, confirmation (AID 1900); format: functional, organism-based
[15] = Luminescence Cell-Based Dose Retest to Confirm Inhibitors of Cancer Stem Cells. [Related pubchem assays (depositor defined):AID2717, AID2721]; format: functional; settings: Homo sapiens
[16] = cytotoxicity toward NIH3T3 fibroblasts, dose response, counter-screen, cell-based, ATP luminescence, mouse fibroblasts (AID 2010); format: functional;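 also: cells exposed to compound for about 90 hours before reading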
[17] = inhibitors of intracellular T. cruzi replication, confirmation, NIH3T3 host cells, beta-gal luminescence (AID 2044); format: functional, cell-based;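 also: intracellular parasites grown in NIH/3T3 mouse fibroblasts as host cells; luminescent beta-galactosidase reporter signal from transgenic T. cruzi replicating inside host cells; inhibitors lower the luminescence signal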
Melanocortin receptor 4 = Melanocortin receptor 4 (Homo sapiens, UniProt P32245); format: functional, cell-based;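 also: Cell-based assay with luminescence read-out, confirmatory dose-response testing for agonist activity of biased ligands at MC4R; human U2OS cells with tagged receptor and beta-arrestin; potency of agonists that increase receptor coupling to beta-arrestin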
Chain of Melanocortin receptor 4 (P32245 whole entry): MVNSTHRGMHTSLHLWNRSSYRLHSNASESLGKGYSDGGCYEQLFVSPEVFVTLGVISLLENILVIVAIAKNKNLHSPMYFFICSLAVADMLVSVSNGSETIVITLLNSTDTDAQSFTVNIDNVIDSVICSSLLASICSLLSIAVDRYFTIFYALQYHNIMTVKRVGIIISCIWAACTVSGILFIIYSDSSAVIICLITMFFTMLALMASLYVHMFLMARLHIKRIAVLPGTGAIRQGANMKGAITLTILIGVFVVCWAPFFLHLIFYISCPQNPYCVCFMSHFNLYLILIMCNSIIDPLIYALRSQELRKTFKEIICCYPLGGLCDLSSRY

cells = format: functional
[18] = THP-1 cell cytotoxicity, dose response, cytotoxicity control for non-replicating M. tuberculosis project (AID 489025); format: functional
[19] = HepG2 cell cytotoxicity, dose response, cytotoxicity control, cherry-picked samples (AID 1159577); format: functional, cell-based
[20] = P. falciparum Dd2 growth inhibitors, dose response, SYBR Green, cherry-picked samples (AID 1159567); format: functional, cell-based
[21] = inhibitors of clade B AD8 Env fusion, dose response, cell-based, cherry-pick (AID 652062); format: functional;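 also: luciferase signal from cell-cell fusion driven by HIV-1 clade B AD8 Env; potency is for inhibitors of fusion seen as a drop in luminescence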
[22] = inhibitors of HIV Env-driven cell fusion, dose response, cherry-pick (AID 652057); format: functional, cell-based
[23] = off-target signal loss in HeLa-CEM21 co-culture – HeLa F-luc CTL cells, cherry-picked, counter-screen for HIV-1 Env fusion inhibitor project, dose response (AID 652040); format: functional, cell-based;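 also: potency for signal decrease marking cytotoxic or nonspecific inhibition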
[24] = ZM109 Env clade C HIV-1 fusion inhibitors, dose response, HeLa effector, CEM target cells, luciferase, cherry-pick (AID 652058); format: functional, cell-based
[25] = HepG2 cell cytotoxicity, dose response, cytotoxicity control, plate reader, cherry-pick, antagonist series (AID 743416); format: functional, cell-based
[26] = MC4R antagonists, dose response, counter-screen for LGR2 antagonist project, cell-based, plate reader, cherry pick (AID 743444); format: functional;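 also: transfected HEK 293 cells stimulated with alpha-MSH peptide; potency of inhibitors of the alpha-MSH evoked signal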
[27] = LGR2 antagonists, dose response, cell-based, HEK293, CRE-luciferase reporter, cherry pick, set 2 (AID 743343); format: functional;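 also: transfected cells were stimulated with diluted bursicon conditioned medium after compound addition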
[28] = A549 cell cytotoxicity, dose response, cytotoxicity control, plate reader, cherry-pick, antagonist series (AID 743412); format: functional, cell-based

## Cc1ccc2cc(C#N)c(SCc3nnc(-c4ccccc4[N+](=O)[O-])o3)nc2c1
[1]
  EC50: 4.3 µM (active)
[2]
  EC50: 3.33 µM (active)

## COc1cc(-c2nc3ccc(C)cn3c2Nc2ccc3c(c2)OCCO3)ccc1O
[3]
  CC50: 100 µM (active)
[4]
  IC50: 34.2 µM (active)

## CCCOC(=O)c1c(NC(=O)C2CCCO2)sc(C(=O)OC)c1C (stereo unspecified)
[5]
  IC50: 69.5 µM (active)
[1]
  EC50: 28.2 µM (active)
[6]
  IC50: > 66 µM (inactive)
[2]
  EC50: 28.7 µM (active)
[7]
  IC50: > 66 µM (inactive)

## COc1ccccc1NC(=O)NC(N)=O
Estrogen receptor beta
  IC50: > 50 µM (not active)

## Cc1ccccc1NC(=O)Cn1cnc2c1c(=O)n(C)c(=O)n2C
Estrogen receptor beta
  IC50: > 50 µM (not active)
Cytochrome P450 1A2
  AC50: 15.8 µM (inconclusive)

## CC(=O)Oc1c(Cl)cc(N(C(C)=O)S(=O)(=O)c2ccccc2)c2ccccc12
[8]
  IC50: 10.1 µM (inactive)
[9]
  EC50: > 260 µM (inactive)
INS1
  AC50: 4.34 µM (active)

## CC(C)(C)Nc1nc(Nc2ccc([N+](=O)[O-])cc2)nc(NC(C)(C)C)n1
[10]
  CC50: > 40 µM (active)
[11]
  EC50: > 120 µM (not active)
[12]
  EC50: > 120 µM (not active)
[13]
  EC50: > 120 µM (not active)

## COc1cc2c(C(=O)N3CCN(c4ccccc4C)CC3)c(C)oc2cc1Br
Streptococcus
  EC50: 36 µM (active)
[10]
  CC50: > 40 µM (active)
Streptokinase A
  EC50: 79.8 µM (active)
[14]
  EC50: 4.4 µM (active)

## OC(CNCCc1ccc(C(F)(F)F)cc1)COc1cccc2ccccc12 (stereo unspecified)
[1]
  EC50: 10.7 µM (active)
[15]
  AC50: 3.47 µM (active)
[16]
  EC50: > 60 µM (inconclusive)
[17]
  EC50: 0.631 µM (active)
Melanocortin receptor 4
  EC50: > 89.2 µM (inactive)
cells
  IC50: 21.7 µM (active)
[2]
  EC50: 12.7 µM (active)
[18]
  CC50: 21.5 µM (active)

## Cc1cccc(-c2ccc([C@@H]3[C@H](CO)N4CCCCN(S(=O)(=O)c5cccc(C)c5)C[C@@H]34)cc2)c1
[19]
  AC50: 8.89 µM (active)
[20]
  AC50: 0.864 µM (active)

## CC(C)c1ccc(N2C=Nc3ccc(C(C)C)cc3C2)cc1
[8]
  IC50: 22.5 µM (inactive)

## Sc1ncc(-c2ccccc2)n1-c1cccc(Cl)c1
[21]
  AC50: 21.3 µM (active)
[22]
  AC50: 11.7 µM (active)
[23]
  AC50: 17.1 µM (active)
[24]
  AC50: 16.1 µM (active)

## Cc1ccc(NC(=O)c2ccc3c(c2)OCCO3)cc1C
[25]
  AC50: > 52 µM (inactive)
[26]
  AC50: 7.61 µM (active)
[11]
  EC50: 3.68 µM (active)
[12]
  EC50: 5.06 µM (active)
[27]
  AC50: 5.65 µM (active)
[28]
  AC50: > 52 µM (inactive)

## COc1cc(OC)cc(-c2cc3ccc(OC)cc3cn2)c1
[10]
  CC50: 21.8 µM (active)
[15]
  AC50: 3.32 µM (active)
